According to patent US7809428B2, “Devices for detection and therapy of atheromatous plaque” (The General Hospital Corporation, priority 2001, dated 2010):

Legend:
[1] = test system: J774 or RAW264.7 mouse macrophage-like cells versus non-target EMT-6 cells; experiment: Cellular uptake of conjugates and free ce6; type: cell-based; settings: J774 and EMT-6 cells
Experimental: J774.A1 (J774) and RAW 264.7 mouse macrophage-like cell lines, together with EMT-6 mouse mammary […] cells, were obtained from ATCC (Rockville, Md.). Cells were grown in RPMI 1640 media containing HEPES, glutamine, 10% fetal calf serum (FCS), 100 U/ml penicillin and 100 μg/ml streptomycin. They were passaged by washing with phosphate buffered saline (PBS) without Ca^2+ and Mg^2+ and by adding trypsin-EDTA to the plate for 10 minutes at 37° C.
For cellular uptake studies, cells were grown to approximately 90% confluency in twenty-four well plates and the conjugate or photosensitizer was added in about 1 ml medium containing approximately 10% serum to each well. […] The trypsin supernatant was checked for the presence of fluorescence to quantify any surface binding which might easily be removed by trypsin. The fluorescence was measured using an excitation wavelength of 400 nm and the emission scanned from 580 to 700 nm in order to calculate the peak area (λmax=664 nm). A series of dilutions in approximately 1.5 ml 0.1M NaOH/1% SDS of known concentrations of each separate conjugate and photosensitizer was scanned for fluorescence as above in order to prepare calibration curves to allow for quantitation of the ce6 by conversion of the measured peak areas into mol ce6 equivalent. […] Results were expressed as mol of ce6 per mg cell protein. […]

[2] = test system: experimental atherosclerotic lesions of the aorta; type: in vivo, rabbit
Experimental: Male New Zealand White rabbits weighing 2.5-3.0 kg (Charles River Breeding Laboratories) were maintained on a 2% cholesterol-6% peanut oil diet (ICN) for 3 months. […] The femoral artery was then ligated, and the wound closed. The animals were allowed to recover from anesthesia and then returned to their cages.
Two to four millicuries of the ^99mTc-Ap4A-glucoheptonate, ^99mTc-AppCHClppA-glucoheptonate, or ^99mTc-glucoheptonate (control) was injected into marginal ear veins of groups of three rabbits with experimental atherosclerotic lesions. As a control, three unlesioned animals were injected with 2-4 mCi of ^99mTc-Ap4A-glucoheptonate. After radiopharmaceutical administration, serial gamma images were collected every minute for the first 5 minutes, every 2 minutes for the next 25 minutes, and every 5 minutes for the next 2.5 hours. In all of the rabbits, images were acquired in the anterior and lateral decubitus projections, including the heart and aorta, by using a standard field-of-view gamma camera (Series 100, Ohio Nuclear, Solon, Ohio) equipped with a high-resolution parallel-hole collimator and interfaced with a dedicated computer system (Technicare 560, Solon, Ohio). The pulse height analyzer was adjusted to record the 140 KeV photopeak of ^99mTc, and all images were recorded in a 256×256 matrix.
After acquiring the final images, the animals were sacrificed with an overdose of sodium pentobarbital. The aortas were removed, opened along the ventral surface, and mounted on styrofoam blocks. The aortas then were placed on the face of the gamma camera and ex vivo images were recorded for 10 minutes.

[3] = test system: aortic and iliac plaque of atherosclerotic rabbits; experiment: Intimal surface fluorescence by OMA-LIF system; type: in vivo, rabbit
Description: The second measurement of intimal surface fluorescence was made by the OMA-LIF system described above. At least 15 separate fluorescence measurements were taken from each artery segment. In addition, the iliac artery through which the balloon was passed also sustained an injury due to its relatively small diameter compared to aortic section 5 and, therefore, developed atherosclerosis compared to the uninjured iliac artery. […] Sections 3, 4 and injured iliac of atherosclerotic compared to normal control had p values<0.0001, while section 5 and uninjured iliacs had p values<0.0005. Accordingly, the less severe plaques of section 5 are distinguishable from the macrophage-rich plaques of sections 3 and 4.
In FIG. 14a, a marked contrast was seen between a large aortic plaque and an area of the abdominal aorta 5 mm beneath the plaque. In FIG. 14b, another marked contrast was seen between the balloon injured iliac artery and the contralateral normal artery in the same rabbit. […] These spectra were obtained in a rabbit that had received an overdose of anesthesia. […] By palpation of the outside of the artery, the position of the catheter in relation to plaques was determined Thus, a novel method has been developed for targeting a photosensitizer composition to the activated macrophages of a vulnerable plaque with high specificity.

[4] = test system: aortic plaque of atherosclerotic rabbits; settings: rabbit, in vivo
Experimental: For confocal fluorescence microscopy, selected parts of the aortas were snap frozen in liquid nitrogen and approximately 10-20 μm frozen sections were prepared. These sections underwent laser scanning confocal fluorescence microscopy to detect the tissue distribution of the ce6. The red intracellular fluorescence from ce6 together with green tissue auto-fluorescence was imaged in the cells in 10 μm frozen sections. Sections were examined with a laser scanning confocal fluorescence microscope. A Leica DMR confocal laser fluorescence microscope (Leica Mikroskopie und Systeme GmbH, Wetzler, Germany)(excitation 488 nm argon laser) and 4×−40× air immersion lens or a 100× oil immersion objective was used to image at a resolution of 1024×1024 pixels. […] These channels were overlaid using TCS NT software (Version 1.6.551, Leica Lasertechnik, Heidelberg, Germany) to allow visualization of overlap of red and green fluorescence. These sections were also stained by immunohistochemistry using macrophage specific monoclonal antibodies and conventional H&E staining. Other parts of normal and atherosclerotic aorta were cut into small pieces, weighed and dissolved in sodium hydroxide/SDS and the tissue content of ce6 was determined by spectrofluorimetry as previously described (Hamblin et al (2000) Br. J. Cancer 83:1544). […]

[5] = test system: balloon-injured abdominal aorta plaque; experiment: In vivo photodynamic therapy of rabbit aorta through flowing blood
Experimental: Animals (one atherosclerotic and one normal rabbit, each injected with Mal-BSA-ce6 24 hours previously; and one atherosclerotic rabbit that received no injection) were anesthetized as before and a cylindrical diffusing tipped fiber optic (length of tip=2 cm, diameter=1 mm) was advanced to a position midway along the balloon-injured abdominal aorta. […] Light was delivered at a fluence rate of approximately 100 mW/cm of diffusing tip and a total fluence of approximately 100 J/cm was delivered. At the conclusion of the illumination, the fiber was withdrawn and the arteriotomy and overlying wound were closed. Animals were sacrificed 48 hours later. […] Complete aortas and iliac arteries were removed from the PDT treated normal and atherosclerotic rabbits and control (no Mal-BSA-ce6 injection) atherosclerotic rabbit and were examined by histology using H&E, Masson Trichrome and Verhoeffs stain.

[6] = atherosclerotic rabbit, conjugate and light

chlorin e6 [ce6]
uptake of unbound ce6 by receptor-positive and receptor-negative cells [1]: indiscriminate uptake

^99mTc-glucoheptonate
clearance of radioactivity from all organs, t1/2s ([2]; rabbit, in vivo): 5 to 10 min | organs in which radioactivity accumulated ([2]; rabbit, in vivo): accumulated in the kidneys and bladder | accumulation of radioactivity in the aortic lesions ([2]; rabbits with experimental atherosclerosis): no evidence of specific accumulation in the aortic lesions

Mal-BSA-ce6
intimal surface fluorescence, atherosclerotic versus normal rabbit ([3]; arteries with inflamed plaque (sections 3, 4 and injured iliac, p<0.0001)): highly significant increases in fluorescence | intimal surface fluorescence, atherosclerotic versus normal rabbit ([3]; sections 1 and 2): not significantly different | extracted ce6 fluorescence per gram tissue, difference atherosclerotic versus normal rabbits [4]: significant | gross damage at necropsy in illuminated aortic section or surrounding tissue ([5]; atherosclerotic rabbit, 48 hours after PDT): no gross damage visible | histological changes in the illuminated section [5, 6]: evidence of apoptosis (pyknotic nuclei) and an inflammatory infiltrate in the plaque | necrosis in the illuminated section (histology) [5, 6]: some coagulative necrosis | overall effect of treatment on plaque histology [5, 6]: favorable modifications of plaque histology and reduced vulnerability | gross damage at necropsy in surrounding tissue ([5]; normal rabbit, 48 hours after PDT): some minor damage visible in the paraaortic muscle | histological changes ([5]; normal rabbit, photosensitizer composition and light): Histological changes were not observed | ill effects of treatment before sacrifice ([5]; two rabbits that received composition and light, two days): no ill effects
